Assay [1] deals with sLFA-1/ICAM-1 (Homo sapiens, UniProt P05107+P20701, DEL701-769). Put plainly: sLFA-1/ICAM-1 ELISA. The note with it: sLFA-1 coated plates, 5dICAM-Fc binding, read-out: LFA/ICAM (IC50). As for the experimental part: (§1) sLFA-1/ICAM-1 ELISA and Mac-1/ICAM-1 ELISA
(§2) Plates were coated with either 50 μl/well of 2.0 ug/ml solution of sLFA-1 or Mac-1 receptor in divalent cation buffer (1 mM MnCI2, 0.14M NaCl, 20 mM HEPES pH 7.2) at 4° C. overnight. Two hundred fifty μl of blocking buffer (1% BSA in divalent cation buffer) was added to each well 1 hour at 37° C. Plates were washed 3 times with wash buffer (TBS/0.05% Tween-20/1 mM MnCl2). The compound to be tested was solubilized in DMSO. A series of 1:3 dilutions were performed to achieve a concentration range of 0.45 nM-3 uM. Fifty μl of binding buffer (0.5% BSA in divalent cation buffer)/1% DMSO and 50 μl of the solutions to be tested were added to the appropriate wells and incubated for 1 hour. Fifty μl of 5dICAM-Fc (27 ng/ml) was added to the appropriate wells and 50 μl binding buffer was added to non-specific binding wells and incubated for 2 hours and washed. One hundred μl of 1:4000 HRP-goat anti-huIgG was added to each well and incubated for 1 hour and washed. One hundred μl of 1:1 TMB solution was added to each well and developed for 20 min at room temperature. Color development was stopped by adding 100 μl H3PO4 to each well. Absorbance was measured at 450 nm.
Background: In an ELISA, binding on a coated surface is turned into a signal by an enzyme label.

Assay [2] concerns the target Mac-1/ICAM-1 (Homo sapiens, UniProt P05107+P11215). Nature of the assay: Mac-1/ICAM-1 ELISA. The note with it: Mac-1 receptor coated plates, 5dICAM-Fc binding. The procedure: as §1, §2

Experimental findings from patent US8404859B2, “Thiazole and thiophene compounds” (Hoffmann-La Roche Inc., priority 2011, dated 2013) are described below.

pIC50: −log10 of the molar value. Where only a bound is given, the exact number is not on record here.

Sequence of Mac-1/ICAM-1 (P05107 23-769, other chains not shown): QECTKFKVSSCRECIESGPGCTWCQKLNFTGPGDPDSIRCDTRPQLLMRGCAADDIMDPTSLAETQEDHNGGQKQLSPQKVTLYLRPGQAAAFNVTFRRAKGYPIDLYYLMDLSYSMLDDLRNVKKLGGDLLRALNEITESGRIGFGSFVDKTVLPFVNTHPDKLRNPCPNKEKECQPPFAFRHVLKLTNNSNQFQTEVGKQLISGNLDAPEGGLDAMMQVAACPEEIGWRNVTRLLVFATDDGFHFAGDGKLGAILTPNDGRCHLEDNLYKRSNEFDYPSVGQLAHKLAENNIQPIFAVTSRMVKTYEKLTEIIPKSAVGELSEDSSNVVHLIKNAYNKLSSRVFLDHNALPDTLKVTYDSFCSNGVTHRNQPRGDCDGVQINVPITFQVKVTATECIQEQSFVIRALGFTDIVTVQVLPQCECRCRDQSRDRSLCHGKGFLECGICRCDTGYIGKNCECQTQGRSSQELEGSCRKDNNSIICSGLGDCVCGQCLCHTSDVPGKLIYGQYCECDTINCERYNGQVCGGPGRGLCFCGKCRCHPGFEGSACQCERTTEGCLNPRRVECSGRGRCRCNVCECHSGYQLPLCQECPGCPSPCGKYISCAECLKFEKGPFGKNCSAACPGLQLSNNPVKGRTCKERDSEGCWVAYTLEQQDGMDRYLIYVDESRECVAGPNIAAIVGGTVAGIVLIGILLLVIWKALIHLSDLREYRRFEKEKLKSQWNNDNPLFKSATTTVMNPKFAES
Sequence of sLFA-1/ICAM-1 (P20701 26-1090 limits assumed, stated change not applied): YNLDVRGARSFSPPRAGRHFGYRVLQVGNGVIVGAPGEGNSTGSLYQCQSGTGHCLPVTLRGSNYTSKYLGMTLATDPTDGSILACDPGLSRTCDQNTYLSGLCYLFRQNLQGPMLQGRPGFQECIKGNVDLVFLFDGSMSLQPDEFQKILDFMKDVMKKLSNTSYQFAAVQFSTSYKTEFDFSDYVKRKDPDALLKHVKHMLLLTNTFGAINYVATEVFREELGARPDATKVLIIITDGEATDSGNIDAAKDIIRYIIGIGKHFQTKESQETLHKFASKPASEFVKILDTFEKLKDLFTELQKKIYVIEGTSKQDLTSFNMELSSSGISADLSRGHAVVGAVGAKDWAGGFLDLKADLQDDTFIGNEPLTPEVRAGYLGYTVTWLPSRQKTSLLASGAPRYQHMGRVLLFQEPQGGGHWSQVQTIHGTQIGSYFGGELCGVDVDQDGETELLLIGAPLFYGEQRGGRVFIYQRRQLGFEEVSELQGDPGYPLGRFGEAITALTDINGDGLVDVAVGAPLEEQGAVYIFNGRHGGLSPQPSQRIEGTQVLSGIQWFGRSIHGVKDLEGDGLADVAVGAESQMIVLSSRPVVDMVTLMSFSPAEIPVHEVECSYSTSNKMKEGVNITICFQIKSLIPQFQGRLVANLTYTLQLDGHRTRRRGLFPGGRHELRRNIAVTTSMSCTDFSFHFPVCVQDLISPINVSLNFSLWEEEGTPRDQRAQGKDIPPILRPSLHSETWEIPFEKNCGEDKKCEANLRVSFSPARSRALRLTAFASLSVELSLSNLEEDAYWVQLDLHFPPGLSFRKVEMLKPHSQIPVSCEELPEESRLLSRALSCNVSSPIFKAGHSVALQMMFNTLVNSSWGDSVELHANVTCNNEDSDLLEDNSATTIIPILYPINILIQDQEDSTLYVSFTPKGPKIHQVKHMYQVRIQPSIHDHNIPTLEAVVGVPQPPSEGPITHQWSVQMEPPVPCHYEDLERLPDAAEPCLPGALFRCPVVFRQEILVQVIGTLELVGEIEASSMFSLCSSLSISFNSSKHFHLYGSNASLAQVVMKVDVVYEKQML
Sequence of sLFA-1/ICAM-1 (P05107 23-700 limits assumed, stated change not applied): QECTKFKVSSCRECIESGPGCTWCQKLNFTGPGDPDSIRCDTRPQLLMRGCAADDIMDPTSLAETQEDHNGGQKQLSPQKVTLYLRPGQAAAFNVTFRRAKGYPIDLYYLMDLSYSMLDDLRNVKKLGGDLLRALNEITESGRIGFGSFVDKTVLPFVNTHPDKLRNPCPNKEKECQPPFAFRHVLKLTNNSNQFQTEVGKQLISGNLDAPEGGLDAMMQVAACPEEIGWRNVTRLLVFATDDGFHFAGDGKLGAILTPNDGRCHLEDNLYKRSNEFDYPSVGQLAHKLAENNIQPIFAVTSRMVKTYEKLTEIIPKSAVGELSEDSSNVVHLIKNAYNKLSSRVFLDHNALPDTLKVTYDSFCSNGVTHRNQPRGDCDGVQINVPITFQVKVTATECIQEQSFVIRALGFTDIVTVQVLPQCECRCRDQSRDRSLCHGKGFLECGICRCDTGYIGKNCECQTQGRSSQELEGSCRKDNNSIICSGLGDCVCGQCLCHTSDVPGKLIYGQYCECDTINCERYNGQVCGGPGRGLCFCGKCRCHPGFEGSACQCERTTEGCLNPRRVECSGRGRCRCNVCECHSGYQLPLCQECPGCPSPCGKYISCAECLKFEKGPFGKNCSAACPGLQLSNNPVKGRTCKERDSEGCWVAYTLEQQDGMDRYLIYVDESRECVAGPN

In the case of `Cc1nc(NC(=O)Cc2cccc(O)c2)sc1C(=O)N[C@@H](CNC(=O)c1cc(F)cc(F)c1)C(=O)O` [Example 1, (S)-3-(3,5-Difluoro-benzoylamino)-2-({2-[2-(3-hydroxy-phenyl)-acetylamino]-4-methyl-thiazole-5-carbonyl}-amino)-propionic acid], the pIC50 in assay [1] was 7.77. Consider `Cc1nc(NC(=O)Cc2cccc(O)c2)sc1C(=O)N[C@@H](CNC(=O)c1cccs1)C(=O)O` [Example 2, (S)-2-({2-[2-(3-Hydroxy-phenyl)-acetylamino]-4-methyl-thiazole-5-carbonyl}-amino)-3-[(thiophene-2-carbonyl)-amino]-propionic acid], for which the pIC50 in assay [1] was 8.40; in assay [2], 7.24. In the same order, the values of `O=C(Cc1cccc(O)c1)Nc1ncc(C(=O)N[C@@H](CNC(=O)c2cccs2)C(=O)O)s1` [Example 3, (S)-2-({2-[2-(3-Hydroxy-phenyl)-acetylamino]-thiazole-5-carbonyl}-amino)-3-[(thiophene-2-carbonyl)-amino]-propionic acid] are 7.07 and less than 5.52. As to `Cc1nc(NC(=O)Cc2cccc(O)c2)sc1C(=O)N[C@@H](CNC(=O)c1ccccc1)C(=O)O` [Example 4, (S)-3-Benzoylamino-2-([2-[2-(3-hydroxy-phenyl)-acetylamino]-4-methyl-thiazole-5-carbonyl]-amino)-propionic acid], the pIC50 in assay [1] was 8.22.

As to `Cc1nc(NC(=O)Cc2cccc(O)c2)sc1C(=O)N[C@@H](CNC(=O)c1cccc(O)c1)C(=O)O` [Example 5, (S)-3-(3-Hydroxy-benzoylamino)-2-({2-[2-(3-hydroxy-phenyl)-acetylamino]-4-methyl-thiazole-5-carbonyl}-amino)-propionic acid], the pIC50 in assay [1] was 8.70; in assay [2], 6.52. In the case of `Cc1nc(NC(=O)Cc2cccc(O)c2)sc1C(=O)N[C@@H](CNC(=O)c1cc(O)cc(O)c1)C(=O)O` [Example 6, (S)-3-(3,5-Dihydroxy-benzoylamino)-2-({2-[2-(3-hydroxy-phenyl)-acetylamino]-4-methyl-thiazole-5-carbonyl}-amino)-propionic acid], the pIC50 in assay [1] was 8.52. Turning to `Cc1nc(NC(=O)Cc2cccc(O)c2)sc1C(=O)N[C@@H](CNC(=O)c1ccsc1)C(=O)O` [Example 7, (S)-2-({2-[2-(3-Hydroxy-phenyl)-acetylamino]-4-methyl-thiazole-5-carbonyl}-amino)-3-[(thiophene-3-carbonyl)-amino]-propionic acid], the pIC50 was 8.30 in assay [1] and 7.52 in assay [2]. In the same order, the values of `O=C(Cc1cccc(O)c1)Nc1nc(Cl)c(C(=O)N[C@@H](CNC(=O)c2cccs2)C(=O)O)s1` [Example 8, (S)-2-({4-Chloro-2-[2-(3-hydroxy-phenyl)-acetylamino]-thiazole-5-carbonyl}-amino)-3-[(thiophene-2-carbonyl)-amino]-propionic acid] are 8.15 and 7.49. Consider `O=C(Cc1cccc(O)c1)Nc1nc(C(F)(F)F)c(C(=O)N[C@@H](CNC(=O)c2cccs2)C(=O)O)s1` [Example 9, (S)-2-([2-[2-(3-Hydroxy-phenyl)-acetylamino]-4-trifluoromethyl-thiazole-5-carbonyl]-amino)-3-[(thiophene-2-carbonyl)-amino]-propionic acid], for which the values for the pIC50 in assay [1] and in assay [2] were 7.52 and 7.09, respectively. In the same order, the values of `Cc1nc(NC(=O)CCc2cccc(O)c2)sc1C(=O)N[C@@H](CNC(=O)c1cc(O)cc(O)c1)C(=O)O` [Example 10, (S)-3-(3,5-Dihydroxy-benzoylamino)-2-({2-[3-(3-hydroxy-phenyl)-propionylamino]-4-methyl-thiazole-5-carbonyl}-amino)-propionic acid] are 7.36 and 7.70.

As to `Cc1nc(NC(=O)CCc2cccc(O)c2)sc1C(=O)N[C@@H](CNC(=O)c1cccs1)C(=O)O` [Example 11, (S)-2-([2-[3-(3-Hydroxy-phenyl)-propionylamino]-4-methyl-thiazole-5-carbonyl]-amino)-3-[(thiophene-2-carbonyl)-amino]-propionic acid], the pIC50 in assay [1] is 7.05. Turning to `Cc1nc(NCCc2cccc(O)c2)sc1C(=O)N[C@@H](CNC(=O)c1cc(O)cc(O)c1)C(=O)O` [Example 12, (S)-3-(3,5-Dihydroxy-benzoylamino)-2-({2-[2-(3-hydroxy-phenyl)-ethylamino]-4-methyl-thiazole-5-carbonyl}-amino)-propionic acid], the pIC50 is 7.89 in assay [1] and 7.57 in assay [2]. For `Cc1nc(OCCCc2cccc(O)c2)sc1C(=O)N[C@@H](CNC(=O)c1cccs1)C(=O)O` [Example 13, (S)-2-({2-[3-(3-Hydroxy-phenyl)-propoxy]-4-methyl-thiazole-5-carbonyl}-amino)-3-[(thiophene-2-carbonyl)-amino]-propionic acid], the pIC50 in assay [1] was 7.28; in assay [2], less than 5.52. For the molecule `O=C(Cc1cccc2[nH]ncc12)Nc1nc(C(F)(F)F)c(C(=O)N[C@@H](CNC(=O)c2cccs2)C(=O)O)s1` [Example 16, (S)-2-{[2-(2-1H-Indazol-4-yl-acetylamino)-4-trifluoromethyl-thiazole-5-carbonyl]-amino}-3-[(thiophene-2-carbonyl)-amino]-propionic acid], the pIC50 in assay [1] is 7.77. On the same count and under the same terms, next, `Cc1cc(C(=O)NC(C)c2cccc(O)c2)sc1C(=O)N[C@@H](CNC(=O)c1cccs1)C(=O)O` (stereo partly drawn) [Example 37, (S)-2-({5-[1-(3-hydroxy-phenyl)-ethylcarbamoyl]-3-methyl-thiophen-2-carbonyl}-amino)-3-[(thiophene-2-carbonyl)-amino]-propionic acid]: 7.57. Still for that read-out and setting: in the case of `COc1cc(C(=O)NC[C@H](NC(=O)c2sc(C(=O)NCc3cccc(O)c3)cc2C)C(=O)O)nc(OC)n1` [Example 43, (S)-3-[(2,6-dimethoxy-pyrimidine-4-carbonyl)-amino]-2-{[5-(3-hydroxy-benzylcarbamoyl)-3-methyl-thiophene-2-carbonyl]-amino}-propionic acid] it was less than 5.52; in that of `Cc1cc(C(=O)NCc2cccc(O)c2)sc1C(=O)N[C@@H](CNC(=O)c1cccc2[nH]ncc12)C(=O)O` [Example 44, (S)-2-{[5-(3-hydroxy-benzylcarbamoyl)-3-methyl-thiophene-2-carbonyl]-amino}-3-[(1H-indazole-4-carbonyl)-amino]-propionic acid], 7.77. On the same count and under the same terms, in the case of `Cc1cc(C(=O)NCc2cccc(O)c2)sc1C(=O)N[C@@H](CNC(=O)c1cnc(O)cn1)C(=O)O` [Example 45, (S)-2-{[5-(3-hydroxy-benzylcarbamoyl)-3-methyl-thiophene-2-carbonyl]-amino}-3-[(5-hydroxy-pyrazine-2-carbonyl)-amino]-propionic acid] it was 6.12; in that of `Cc1cc(C(=O)NCc2cccc(O)c2)sc1C(=O)N[C@@H](CNC(=O)c1cccc2[nH]cnc12)C(=O)O` [Example 46, (S)-3-[(1H-benzoimidazole-4-carbonyl)-amino]-2-{[5-(3-hydroxy-benzylcarbamoyl)-3-methyl-thiophene-2-carbonyl]-amino}-propionic acid], 7.29; in that of `Cc1cc(C(=O)NCc2cccc(O)c2)sc1C(=O)N[C@@H](CNC(=O)c1cccc(C(=O)O)c1)C(=O)O` [Example 47, (S)-3-[(benzoic acid-3-carbonyl)-amino]-2-{[5-(3-hydroxy-benzylcarbamoyl)-3-methyl-thiophene-2-carbonyl]-amino}-propionic acid], 6.54.

For `Cc1cc(C(=O)NCCc2cccc(O)c2)sc1C(=O)N[C@@H](CNC(=O)c1cccs1)C(=O)O` [Example 48, (S)-2-({5-[2-(3-hydroxy-phenyl)ethyl-carbamoyl]-3-methyl-thiophen-2-carbonyl}-amino)-3-[(thiophene-2-carbonyl)-amino]-propionic acid], the pIC50 in assay [1] is 7.07. `O=C(NC[C@H](NC(=O)c1sc(C(=O)NCc2cccc(O)c2)cc1-c1ccccc1)C(=O)O)c1cccs1` [Example 53, (S)-2-{[5-(3-Hydroxy-benzylcarbamoyl)-3-phenyl-thiophene-2-carbonyl]-amino}-3-[(thiophene-2-carbonyl)-amino]-propionic acid]: the pIC50 in assay [1] was 5.81.

As to `N#Cc1cc(C(=O)NCc2cccc(O)c2)sc1C(=O)N[C@@H](CNC(=O)c1cccs1)C(=O)O` [Example 65, (S)-2-{[3-Cyano-5-(3-hydroxy-benzylcarbamoyl)-thiophene-2-carbonyl]-amino}-3-[(thiophene-2-carbonyl)-amino]-propionic acid], the pIC50 in assay [1] was 8.52. Take `N#Cc1cc(C(=O)NCc2cccc3[nH]ncc23)sc1C(=O)N[C@@H](CNC(=O)c1cc(O)cc(O)c1)C(=O)O` [Example 66, (S)-2-({3-Cyano-5-[(1H-indazol-4-ylmethyl)-carbamoyl]-thiophene-2-carbonyl}-amino)-3-(3,5-dihydroxy-benzoylamino)-propionic acid]: the pIC50 in assay [1] was 7.39.
